Experimental findings from patent publication US7388005B2, “Substituted 2-pyrimidinyl-6,7,8,9-tetrahydropyrimido[1,2-a]pyrimidin-4-one and 7-pyrimidinyl-2,3-dihydroimidazo [1,2-a]pyrimidin-5(1H)one derivatives for neurodegenerative disorders” (Sanofi-Aventis, priority 2001, dated 2008) are described below.

The target in one assay is cdk5/p25 (Homo sapiens, UniProt Q00535). The assay can be described thus: Inhibitory activity against cdk5/p25 (TPK2), 33P-ATP phosphorylation of Histone H1. It is filed as biochemical. The method, then:
The following protocol may be used:
0.4 mg/ml Histone H1 and 10 μM ATP (containing 300,000 cpm of ^33P-ATP) were incubated in 50 mM Hepes, pH 7.2, 1 mM DTT, 1 mM MgCl2, 1 mM EGTA, 0.02% Tween 20 buffer for 1 hour at room temperature in the presence of cdk5/p25 (total reaction volume: 100 microliters).
Inhibitors were solubilised in DMSO (final solvent concentration in the reaction medium, 1%).
The reaction was stopped with 100 microliters of a solution of 25 g polyphosphoric acid (85% P2O5), 126 ml 85% H3PO4, H2O to 500 ml (diluted to 1:100 before use). An aliquot of the reaction mixture was then transferred to Whatman P81 cation exchange filters and rinsed with the solution described above. Incorporated ^33P radioactivity was determined by liquid scintillation spectrometry.
The cdk5/p25 inhibitory activity of the compounds of the present invention are expressed as IC50 values. Typically, 3-fold serial dilutions of the inhibitor over at least a 1000-fold concentration range are used.

The target in the next assay is GSK3β (Homo sapiens, UniProt P49841). Kind of assay: Inhibitory activity against GSK3β (TPK1), 33P-ATP phosphorylation of prephosphorylated GS1 peptide. It is filed as biochemical. How it is done: Two different protocols can be used.
Chain of GSK3β (P49841 whole entry, species assumed): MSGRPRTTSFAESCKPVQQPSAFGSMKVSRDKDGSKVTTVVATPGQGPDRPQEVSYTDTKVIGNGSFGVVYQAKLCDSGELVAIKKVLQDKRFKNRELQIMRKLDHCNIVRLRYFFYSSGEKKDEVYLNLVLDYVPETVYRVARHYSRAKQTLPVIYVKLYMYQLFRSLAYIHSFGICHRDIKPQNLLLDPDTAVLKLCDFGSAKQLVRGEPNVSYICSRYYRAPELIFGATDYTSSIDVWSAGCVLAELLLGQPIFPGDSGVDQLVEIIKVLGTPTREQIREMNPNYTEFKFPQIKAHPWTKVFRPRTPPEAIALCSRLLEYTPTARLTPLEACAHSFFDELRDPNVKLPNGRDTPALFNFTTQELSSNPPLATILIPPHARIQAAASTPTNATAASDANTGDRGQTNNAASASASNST
In a first protocol: 7.5 μM of prephosphorylated GS1 peptide and 10 μM ATP (containing 300,000 cpm of 33P-ATP) were incubated in 25 mM Tris-HCl, pH 7.5, 0.6 mM DTT, 6 mM MgCl2, 0.6 mM EGTA, 0.05 mg/ml BSA buffer for 1 hour at room temperature in the presence of GSK3β (total reaction volume: 100 microliters).
In a second protocol: 4.1 μM of prephosphorylated GS1 peptide and 42 μM ATP (containing 260,000 cpm 33P-ATP) were incubated in 80 mM Mes-NaOH, pH 6.5, 1 mM Mg acetate, 0.5 mM EGTA, 5 mM 2-mercaptoethanol, 0.02% Tween 20, 10% glycerol buffer for 2 hours at room temperature in the presence of GSK3β. Inhibitors were solubilised in DMSO (final solvent concentration in the reaction medium, 1%).
The reaction was stopped with 100 microliters of a solution made of 25 g polyphosphoric acid (85% P2O5), 126 ml 85% H3PO4, H2O to 500 ml and then diluted to 1:100 before use. An aliquot of the reaction mixture was then transferred to Whatman P81 cation exchange filters and rinsed with the solution described above. Incorporated 33P radioactivity was determined by liquid scintillation spectrometry.
The phosphorylated GS-1 peptide had the following sequence: NH2-[…](P)EDEE-COOH.
The GSK3β inhibitory activity of the compounds of the present invention are expressed in IC50, and as an illustration the range of IC50's of the compounds in table 1 is between 2 nanomolar to 2 micromolar concentrations, of the compounds in table 2 is between 30 nanomolar to 2 micromolar concentrations and of the compounds in table 3 is between 1 nanomolar to 2 micromolar concentrations.

Chain of cdk5/p25 (Q00535 whole entry, species assumed): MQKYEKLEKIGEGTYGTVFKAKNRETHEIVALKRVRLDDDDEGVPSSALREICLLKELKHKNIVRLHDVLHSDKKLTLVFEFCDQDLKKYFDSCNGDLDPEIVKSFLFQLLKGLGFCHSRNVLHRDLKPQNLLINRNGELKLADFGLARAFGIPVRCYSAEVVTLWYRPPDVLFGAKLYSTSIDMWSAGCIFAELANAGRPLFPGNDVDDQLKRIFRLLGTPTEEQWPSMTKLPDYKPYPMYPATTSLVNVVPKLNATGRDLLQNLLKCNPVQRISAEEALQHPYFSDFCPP
Chain of cdk5/p25 (Q15078 99-307 partner limits assumed, species assumed): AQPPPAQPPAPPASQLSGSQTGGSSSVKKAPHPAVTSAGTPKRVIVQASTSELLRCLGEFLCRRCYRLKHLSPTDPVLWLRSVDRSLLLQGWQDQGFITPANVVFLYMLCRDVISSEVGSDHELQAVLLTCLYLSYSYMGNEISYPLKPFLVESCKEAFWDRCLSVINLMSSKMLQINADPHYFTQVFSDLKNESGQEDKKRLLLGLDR

For `COc1cc(F)ccc1C(O)CN1CC(C)(C)Cn2c1nc(-c1ccncn1)cc2=O` (racemic) [Table 1 No. 69, 9-[2-(4-Fluoro-2-methoxy-phenyl)-2-hydroxy-ethyl]-7,7-dimethyl-2-(pyrimidin-4-yl)-6,7,8,9-tetrahydro-pyrimido[1,2-a]pyrimidin-4-one], the figures for the IC50 against cdk5/p25 and against GSK3β were more than 1000 nM and 4 nM, respectively.
In the case of `O=c1cc(-c2ccncn2)nc2n1CCCN2C[C@@H](O)c1ccccc1` [Table 1 No. 9, 9-(2(S)-Hydroxy-2-phenyl-ethyl)-2-(pyrimidin-4-yl)-6,7,8,9-tetrahydro-pyrimido[1,2-a]pyrimidin-4-one], the IC50 was found to be 490 nM at cdk5/p25 and 2 nM against GSK3β.
Consider `CC1(C)CN(C[C@@H](O)c2ccccc2)c2nc(-c3ccncn3)cc(=O)n2C1` [Table 1 No. 19, 9-(2(S)-Hydroxy-2-phenyl-ethyl)-7,7-dimethyl-2-(pyrimidin-4-yl)-6,7,8,9-tetrahydro-pyrimido[1,2-a]pyrimidin-4-one], for which the IC50 against cdk5/p25 is 377 nM; on GSK3β it was 8 nM.
For `Cc1c(-c2ccncn2)nc2n(c1=O)CCCN2CC(=O)c1ccccc1` [Table 1 No. 23, 3-Methyl-9-(2-oxo-2-phenyl-ethyl)-2-(pyrimidin-4-yl)-6,7,8,9-tetrahydro-pyrimido[1,2-a]pyrimidin-4-one], in that order: 754 nM and 32 nM.
As to `O=c1c(Cl)c(-c2ccncn2)nc2n1CCCN2C[C@@H](O)c1ccccc1` [Table 1 No. 24, 3-Chloro-9-(2(S)-hydroxy-2-phenyl-ethyl)-2-(pyrimidin-4-yl)-6,7,8,9-tetrahydro-pyrimido[1,2-a]pyrimidin-4-one], the IC50 on cdk5/p25 is 833 nM; at GSK3β, more than 100 nM.
For `COc1ccccc1CCN1CC(C)(C)Cn2c1nc(-c1ccncn1)cc2=O` [Table 1 No. 47, 9-[2-(2-Methoxy-phenyl)-ethyl]-7,7-dimethyl-2-(pyrimidin-4-yl)-6,7,8,9-tetrahydro-pyrimido[1,2-a]pyrimidin-4-one], in that order: more than 1000 nM and 5 nM.
In the case of `COc1cc(F)ccc1CCN1CCCn2c1nc(-c1ccncn1)cc2=O` [Table 1 No. 91, 9-[2-(4-Fluoro-2-methoxy-phenyl)-ethyl]-2-(pyrimidin-4-yl)-6,7,8,9-tetrahydro-pyrimido[1,2-a]pyrimidin-4-one], the IC50 is more than 1000 nM against cdk5/p25 and 3.5 nM against GSK3β.
For `CC1CCn2c(nc(-c3ccncn3)cc2=O)N1C[C@@H](O)c1ccccc1` (stereo partly drawn) [Table 3 No. 7, 9-[2(S)-Hydroxy-2-phenyl-ethyl]-8-methyl-2-(pyrimidin-4-yl)-6,7,8,9-tetrahydro-pyrimido[1,2-a]pyrimidin-4-one], in that order: 833 nM and 12 nM.
For `CC1(C)CCn2c(nc(-c3ccncn3)cc2=O)N1C[C@@H](O)c1ccccc1` [Table 3 No. 11, 9-[2(S)-Hydroxy-2-phenyl-ethyl]-8,8-dimethyl-2-(pyrimidin-4-yl)-6,7,8,9-tetrahydro-pyrimido[1,2-a]pyrimidin-4-one], in that order: 1180 nM and 4 nM.
As to `CC1(C)CCn2c(nc(-c3ccncn3)cc2=O)N1C[C@@H](O)c1ccc(Cl)cc1` [Table 3 No. 35, 9-[2-(4-Chloro-phenyl)-2(S)-hydroxy-ethyl]-8,8-dimethyl-2-(pyrimidin-4-yl)-6,7,8,9-tetrahydro-pyrimido[1,2-a]pyrimidin-4-one], the IC50 at cdk5/p25 is more than 1000 nM; on GSK3β, 2 nM.
